Experimental data from patent US12097188B2, “Compositions and methods for the treatment of macular degeneration” (Aldeyra Therapeutics, Inc., priority 2009, dated 2024).
Read-outs that look alike come from different tables or passages of the source. One block for each compound: values may come before it.

Assays:
[1] = tested on: visual cycle; assay: Functional biological activity in the retina: visual cycle inhibition / dark adaptation rate by ERG; conditions: for effect on normal function of the retina: mouse, in vivo
Source text: (§2) The protocol for measuring DA rates by ERG is based on the kinetics of functional visual recovery from photo-bleaching of visual pigment by brief exposure to extremely bright light.
(§3) A retinoid useful for this purpose is 13-cis-retinoic acid (RA, also known as isotretinoin).

[2] = tested on: A2E formation; assay: A2E formation in the abcr -/- mouse after repeated IP dosing; type: in vivo; conditions: 10 mg/kg IP, repeated daily for 56 days, p<0.01
Source text: (§1) The target tissue, for the biological activity of compounds which reversibly react with RAL, e.g. Compounds A, B and C, is the outer segment of retinal photoreceptor cells.

[3] = in vivo; design: species or system C57BL/6 mice; conditions: ip, 10 mg/kg
Source text: as §1

[4] = Ocular levels of 14C-Compound A in the retina and RPE of rabbits (LSC); type: in vivo, Dutch belted rabbits; conditions: for Amount of 14C-compound A in retina and RPE at tmax: rabbit, single 40 μL TO eyedrop, mean of 6 eyes
Description: Dutch belted rabbits were dosed TO with a single 40 μL eyedrop containing either 0.50%, 0.15% or 0.05% weight/volume ^14C-Compound A in 20%, 6% or 2% weight/volume, respectively, β-cyclodextrin sulfobutylether sodium salt in phosphate-buffered saline (Table 1). At different times after dosing the eyes of the rabbits were enucleated, dissected and the amount of ^14C-Compound A in the retina and RPE together was measured by LSC. Each value represents the mean value from 6 eyes.

[5] = tested on: visual cycle; conditions: mouse, in vivo
Source text: as §2, §3

SMILES: CC(C)(O)c1cc2nc(-c3ccccc3)oc2cc1N [B]
- effect on normal function of the retina [1]: do not alter the normal function of the retina

SMILES: CC(C)(O)c1cc2oc(-c3ccccc3)nc2cc1N [C]
- effect on normal function of the retina [1]: do not alter the normal function of the retina

- Cmax ([3]; C57BL/6, mouse): 14400 ng/g
- Tmax in the posterior eyecup ([3]; mouse): Thirty
- Amount of 14C-compound A in retina and RPE at tmax ([4]; 0.05% w/v in 2% w/v βCSSA): 23.1 ng/g
- Amount of 14C-compound A in retina and RPE at tmax ([4]; 0.15% w/v in 6% w/v βCSSA): 47.0 ng/g
- Amount of 14C-compound A in retina and RPE at tmax ([4]; 0.50% w/v in 20% w/v βCSSA): 131 ng/g
- amounts found in rabbit retina/RPE ([4]; within one hour of TO dosing): Significant amounts
- inhibition of the visual cycle [5]: does not inhibit the visual cycle
SMILES: CC(C)(O)c1nc2ccc(Cl)cc2cc1N [Compound A]
- reduction of A2E formation [2]: 71%
- effect on normal function of the retina [5]: do not alter the normal function of the retina
- effect on rate of dark adaptation (DA) [5]: nor does it slow the rate of dark adaptation

SMILES: CC1=C(/C=C/C(C)=C/C=C/C(C)=C\C(=O)O)C(C)(C)CCC1 [RA, 13-cis-retinoic acid, reference compound]
- visual cycle inhibition ([1]; mice, IP 20 mg/kg (FIG. 3)): show visual cycle inhibition
- inhibition of dark adaptation (DA) ([1]; mice, TO one or two 30 μL eyedrops, 0.2% w/v RA in 20% w/v β-cyclodextrin sulfobutylether sodium salt in PBS (FIG. 3)): dose-responsive inhibition of DA similar to that observed after IP dosing
